Key:
[1] = test system: wheat variety Canon immature embryos / embryogenic callus; assay: Agrobacterium-mediated transformation with dsdA constructs and selection of transgenic plants; format: cell-based, Triticum aestivum
Protocol: Explants were washed with PAW-Inf. medium and immersed in the above-described bacterial suspension for 2 h at 26° C. At the end of infection the explants were placed with scutellum side up on PAW-1 medium. The residual bacterial suspension is removed by pipeting out and air-drying of the infected embryos by opening plates for 15 min on the sterile banch. Plates were sealed with Parafilm and placed in thermostat at 26° C. in the dark for 5-6 days co-cultivation.
After co-cultivation period the explants were washed with sterile water and 500 mg/L Cefotaxime and filter paper dried before being transferred to PAW-2 callus induction-recovery medium containing 160 mg/l Timentin for 14 days (7 days dark/7 days semi light; 13.2 μmol m^−2s^−1). Explants with embryogenic callus were subculture to PAW-2 callus-proliferation medium containing 160 mg/l Timentin and corresponding selection 5 mM D-serine or 5 mM D-alanine or 3 mg/l bialaphos. In some experiments the selection on D-amino acids was starting on PAW-2 callus induction medium 0, 7, 14 and 21 days after co cultivation. Embryogenic callus was subculture twice on fresh selective medium for callus maintaining and regeneration on PAW-4 medium with corresponding selection. Cultures were maintained at 23° C. on light 60.2 μmol m^−2s^−1. Regenerated shoots were subculture to PAW-5 hormone free medium with corresponding selection (5 mM D-serine or 5 mM D-alanine or 3 mg/l bialaphos) for further growth and rooting. All media used in the transformation experiments were filter sterilized and are listed in above. After analyses transgenic plants were transferred to soil and placed for further growth in greenhouse. 1.4 Molecular and expression studies of the transgenic plants
Freshly isolated immature embryos from Canon were inoculated with Agrobacterium. In all experiments Agrobacterium tumefacience LBA4404 (pSB1/pRLM167) (SEQ ID NO: 11) was used. The pRLM167 is a super binary vector containing p-ZmUBI+I::c-dsdA::t-OCS and p-ZmUBI+I::c-PAT::t-OCS selectable marker genes in expression cassettes (FIG. 1). Following co cultivation the explants were given a chance to recover for 14 days on callus induction selection free medium containing 160 mg/l Timentin to inhibit bacterial growth. Under these conditions 59% to 76% of the embryogenic callus developed over the all surface of immature embryos. Embryogenic callus was split in two and transferred to two the corresponding selection medium containing 5-mM D-serine or 3 mg/l bialaphos. During subsequent growth of callus, regeneration of plantlets, shoots elongation and roots formation the respective selection pressure was maintained in each of the corresponding medium. After 7 weeks of selection 38%-47% of the embryogenic calli regenerated with plants when selected on bialaphos or on D-serine respectively. Further selection of the regenerants was performed during the elongation and rooting of the regenerants for an additional 3 weeks. Intact in vitro transgenic shoots were selected within 10-12 weeks after co cultivation.
Freshly isolated immature embryos from Canon were inoculated with Agrobacterium. In all experiments Agrobacterium tumefacience super binary vector system based on LBA4404 (pSB1) was used. The constructs pRLM179, pRLM166, pRLM151 (FIG. 2. I, II and III) containing dsdA selectable marker gene alone or with a second gene (ahas or gusINT) were used for transformation. The explants were cultured on selection medium right away after co-cultivation with Agrobacterium or were cultivated on callus induction—recovery medium for 7, 14 and 21 days containing only 160 mg/l Timentin for inhibiting bacterial growth. Furthermore calli were sub cultured to fresh selection PAW-2 medium for proliferation. Embryogenic calli were transferred on PAW-4 selection medium for regeneration 5-6 weeks after transformation. The emerging plantlets were further grown and rooted on PAW-5 hormone free selection medium. […]

[2] = test system: control seedlings (wheat); assay: Spraying of seedlings with D-serine; format: in vivo, Triticum aestivum; details: 5 days old control seedlings; 50-300 mM
From the text: Unlike Arabidopsis (Ericson et al. 2004a), spraying of 5 days old control and trans-genic seedlings with D-serine was not efficient in wheat. […] Watering of the plants was also not sufficient. Since the uptake, mobility in soil and detoxification by microorganisms are all potential barriers for D-serine in the soil, the expectation of in soil selection seems bleak. Therefore, that the transgenic plants will use the products from detoxification of D-serine as an additional nitrogen supply was not fulfilled in soil.

wheat immature embryos = assay: Killing curve: in vitro germination of immature embryos and seedling growth; format: in vivo, Triticum aestivum
Protocol: In order to establish effective concentrations of D-serine and D-alanine on inhibiting growth of tissue cultured wheat cells, a bioassay system using immature embryos was applied. Immature embryos 2 mm in length were dissected onto germination medium with the selection agents, and incubated at 27° C. in light. The number of germinated embryos with well-developed shoots and brunched shoots were scored after 14 days.
Immature embryos 2 mm in size were isolated from the sterilized caryopses. The embryos were cultured on PAW-5 hormone free medium for germination in dark. Seedlings growth on D-amino acid selection was observed after 2 weeks. Most of the embryos germinated but the seedlings growth was inhibited when roots emerge and the uptake of the selection compound was direct from the medium. The Lethal Dose (LD 100) for seedlings germination and growth was 1 mM concentration of both D-amino acids tested (Table 6). Seedlings derived from embryos isolated from the immature caryopsis without endosperms were susceptible to the selection in concentration higher than 1 mM (FIG. 8).

[3] = construct pRLM167 (dsdA/pat), selection on 5 mM D-serine or 3 mg/l bialaphos
[4] = pRLM179 (dsdA/AHAS), 3 mM, selection started 21 days after co-cultivation
[5] = pRLM179 (dsdA/AHAS), 5 mM, selection started 21 days after co-cultivation
[6] = pRLM179 (dsdA/AHAS), 10 mM, selection started 21 days after co-cultivation

N[C@H](CO)C(=O)O [D-serine]
ER Escape Rate (% of non-transgenic regenerants out of all selected plants) [1, 3]: 17% | TE Transformation Efficiency (% of transgenic plants out of the explants) [1, 3]: 2.1% | Average transformation efficiencies for both constructs ([1]; dsdA constructs with ahas or gusINT, selection on D-serine): about 1% | TE (%) Transformation Efficiency ([1]; pRLM166, 5 mM, start of selection 21 days): 0.69% | ER (%) Escapes Rate [1, 4]: 100% | TE (%) Transformation Efficiency [1, 4]: 0% | ER (%) Escapes Rate [1, 5]: 25% | TE (%) Transformation Efficiency [1, 5]: 1.39% | ER (%) Escapes Rate [1, 6]: 0% | TE (%) Transformation Efficiency [1, 6]: 0.77% | toxicity symptoms after spraying [2]: not sufficient to elicit toxicity symptoms | In vitro germination, Immature Embryos (%) (wheat immature embryos; Bobwhite, 0.5 mM): 46% | In vitro germination, Immature Embryos (%) (wheat immature embryos; Bobwhite, 1 mM): 0% | In vitro germination, Immature Embryos (%) (wheat immature embryos; Bobwhite, 5 mM): 0% | In vitro germination, Immature Embryos (%) (wheat immature embryos; Bobwhite, 10 mM): 0% | In vitro germination, Immature Embryos (%) (wheat immature embryos; Canon, 0.5 mM): 34% | In vitro germination, Immature Embryos (%) (wheat immature embryos; Canon, 1 mM): 0% | In vitro germination, Immature Embryos (%) (wheat immature embryos; Canon, 5 mM): 0% | In vitro germination, Immature Embryos (%) (wheat immature embryos; Canon, 10 mM): 0%

Source: US20090106856A1, “Selection System for Wheat” (BASF PLANT SCIENCE GMBH, priority 2005, published 2009)
